Tests used:
[1] = Acute toxicity and lethal dose determination; format: in vivo, Swiss albino mice; conditions: mice, i.p., 48 hour observation
Method: In the first phase, animals were injected with low doses (1, 1.5, 2, 2.5, 3, 3.5, 4, 6, 8, and 10 mg kg^−1) and observed for 24 hours. Since no mortality was observed, a second set of animals was treated with higher doses (15, 25, 50, 75, 100, and 200 mg kg^−1), with continuous monitoring for 48 hours post-injection. Control animals received sterile saline solution only. All mice were carefully observed for signs of toxicity, behavioral changes (e.g., grooming, feeding, and locomotion), and mortality. The maximum tolerated dose (LD0) was defined as the highest dose at which no mortality or significant toxic symptoms were observed, while the lethal dose (LD100) was identified as the dose at which all animals succumbed. These values were used to establish safe dosing limits for subsequent in vivo pharmacological and biochemical experiments.

[2] = Serum liver and kidney function markers (ALT, AST, creatinine, urea)
Method: Blood samples were collected under light ether anesthesia via the retro-orbital venous plexus and centrifuged at 3000 rpm for 10 minutes. The resulting serum was separated and stored at −20 °C for biochemical analysis.
Serum alanine aminotransferase (ALT) and aspartate aminotransferase (AST) levels were measured as indicators of liver function using commercially available assay kits (BioVenic, NY, USA, (AST) Cat. No.: IVEK3681, (ALT) Cat. No.: IVEK3446), in accordance with the manufacturer's instructions. In the ALT assay, the enzyme catalyzes the conversion of alanine to pyruvate, which is then reduced to lactate by lactate dehydrogenase, resulting in the oxidation of NADH to NAD^+. This reaction causes a decrease in absorbance at 340 nm, which is proportional to ALT activity. Similarly, the AST assay is based on the transamination of aspartate to oxaloacetate, which then reacts with NADH in the presence of malate dehydrogenase, leading to a decrease in NADH absorbance at 340 nm. For each assay, 10 μL of serum was added to the respective substrate buffer and incubated at 37 °C for 30 minutes. The change in absorbance was recorded using a microplate reader at 340 nm. Enzymatic activities were calculated and expressed in units per liter (U L^−1). All measurements were performed in triplicate, and results are presented as mean ± SD.[98,99]
Serum creatinine and urea levels were assessed as indicators of renal function using colorimetric assay kits from BioAssay Systems (DICT-500, USA), according to the manufacturers' protocols. Creatinine concentration was determined based on a colorimetric enzymatic reaction. In this assay, creatinine is enzymatically converted to creatine and then to sarcosine, which is oxidized to produce hydrogen peroxide. The resulting hydrogen peroxide reacts with a chromogenic substrate in the presence of peroxidase to generate a colored product, the intensity of which is proportional to the creatinine concentration. Briefly, 10 μL of serum was mixed with 200 μL of working reagent, incubated at 25 °C for 5 minutes, and the absorbance was recorded at 510 nm using a microplate reader. Values were quantified against a standard curve and expressed in mg dL^−1. On the other hand, urea levels were measured based on an enzymatic reaction that produces a chromophore detectable at 340 nm. Specifically, 5 μL of serum was added to 200 μL of the assay reagent and incubated at 37 °C for 10 minutes. Absorbance was measured at 340 nm, and urea concentration was calculated using a standard curve and expressed as mg dL^−1.

[3] = Liver histopathology (H&E)
Excerpt: Additionally, liver and kidney tissues were excised from each animal for further evaluation. […] The second portion was fixed in 10% neutral buffered formalin for histopathological examination to assess tissue morphology and damage.[96,97]
Liver and kidney tissues were collected from all experimental groups at the end of the study and immediately fixed in 10% neutral buffered formalin. After fixation, the samples were dehydrated, embedded in paraffin, and sectioned at a thickness of 5 μm using a rotary microtome. […] Histopathological examination of renal tissue focused on identifying acute tubular injury (ATI), characterized by tubular epithelial cell flattening, necrosis, apical vacuolization, and loss of the brush border. These features were assessed using a semi-quantitative scoring system.[110] Hepatic tissue sections were evaluated for the severity of hepatocellular injury using a modified Brunt grading system, which includes assessment of hepatocyte ballooning, necrosis, inflammation, and other degenerative changes.

Bax = assay: qRT-PCR gene expression, Bax; format: cell-based, human; conditions: MCF-7, 7.653 μM, 24 h
Method: (§1) Untreated cells served as negative controls. RNA concentration and purity were verified spectrophotometrically prior to cDNA synthesis. Complementary DNA (cDNA) was synthesized from purified RNA using the RT^2 First Strand Kit (Qiagen, Valencia, CA, USA) following the supplied protocol. Quantitative real-time PCR (qRT-PCR) was performed on a Corbett Rotor-Gene 6000 system (Qiagen, USA) using the RT^2 SYBR® Green ROX™ FAST Master Mix (Qiagen). Each 25 μL reaction contained 12.5 μL of master mix, 1 μL of gene-specific primers (RT^2 qPCR Primer Assays, Qiagen), 1 μL of cDNA template, and 10.5 μL of RNase-free water. Gene-specific primers were selected using the PrimerBank database for BAX, BCL2, and TP53, along with GAPDH as the endogenous control (Table S3). Thermal cycling conditions were set as follows: initial enzyme activation at 95 °C for 10 minutes, followed by 40 cycles of denaturation at 95 °C for 15 seconds, and annealing at 60 °C for 30 seconds. Amplification specificity was confirmed by melting curve analysis. Gene expression levels were normalized to GAPDH mRNA as the internal reference, and relative quantification was performed using the ΔΔCt method. […] Statistical analysis was performed using GraphPad Prism software, with p < 0.05 considered statistically significant.[79]

α-tubulin = assay: Western blot of α-tubulin in MCF-7 cells; format: cell-based, human; conditions: MCF-7, 7.653 μM (IC50)
Method: Cells were lysed in RIPA buffer (Thermo Scientific, Cat. #89900) containing protease and phosphatase inhibitors, and lysates were centrifuged at 12 000 × g for 15 min at 4 °C. Protein concentrations were determined using the BCA assay (Thermo Scientific, Cat. #23225), and equal amounts (20–50 μg) were mixed with 2× Laemmli sample buffer (Bio-Rad, Cat. #1610737) and denatured at 95 °C for 5 min. Proteins were separated on SDS-PAGE gels (8–10% for α-tubulin, 12% for β-actin; Bio-Rad TGX™, Cat. #456-9033) and transferred to PVDF membranes (Immobilon-P, Millipore, Cat. #IPVH00010) using a wet transfer system (100 V, 1 h, 4 °C). Membranes were blocked with 5% non-fat milk in TBST for 1 h at room temperature and incubated overnight at 4 °C with anti-α-tubulin (1 : 1000, Cell Signaling Technology, Cat. #3873) and anti-β-actin (1 : 5000, Sigma-Aldrich, Cat. #A5441) antibodies. After washing, membranes were incubated with HRP-conjugated secondary antibodies ([…], Cell Signaling Technology) for 1 h at room temperature. Protein bands were visualized using the SuperSignal™ West Pico/Femto ECL substrate (Thermo Scientific, Cat. #34095) and imaged with a Bio-Rad ChemiDoc system. Band intensities were quantified by densitometry using ImageJ software and normalized to β-actin levels.[82–84]

p53 = assay: qRT-PCR gene expression, p53; format: cell-based, human; conditions: MCF-7, 7.653 μM, 24 h
Method: as §1

In the case of `CCOC(=O)/C(C#N)=C/c1ccc(Oc2c(C)c3cc(Br)c(O)c(Br)c3[nH]c2=O)cc1` [Compound 7, ethyl (E)-2-cyano-3-(4-((6,8-dibromo-7-hydroxy-4-methyl-2-oxo-1,2-dihydroquinolin-3-yl)oxy)phenyl)acrylate], the MTD at 48 h ([1]; Swiss albino, mouse, in vivo, ip, read-out: maximum tolerated dose (LD0)) is reported as 100 mg/kg, the “approximate lethal dose (LD100)” value [1] is reported as about 200 mg/kg and the serum creatinine ([2]; EAC + compound 7 (10 mg kg^−1 i.p.), EAC control 1.7 ± 0.04) is reported as 0.6 ± 0.02 mg/dL. For the same compound, the serum urea ([2]; EAC + compound 7 (10 mg kg^−1 i.p.), EAC control 94 ± 1.78) was 44.83 ± 0.7 mg/dL, the “serum ALT” value ([2]; EAC + compound 7 (10 mg kg^−1 i.p.), EAC control 140.66 ± 3.45) was 49.83 ± 1.16 U L^−1 and the “serum AST” value ([2]; EAC + compound 7 (10 mg kg^−1 i.p.), EAC control 168.33 ± 3.7) was 57.5 ± 1.56 U L^−1. For the same compound, the “serum ALT” value ([2]; compound 7-control group, no EAC (10 mg kg^−1 i.p.), untreated 27.16 ± 0.94) was 22.83 ± 0.6 U L^−1, the serum creatinine ([2]; compound 7-control group, no EAC, untreated 0.5 ± 0.02) was 0.5 ± 0.03 mg/dL and the serum urea ([2]; compound 7-control group, no EAC, untreated 24.16 ± 1.07) was 21.83 ± 0.6 mg/dL. For the same compound, the “serum AST” value ([2]; compound 7-control group, no EAC, untreated 41.66 ± 1.3) was 37.83 ± 0.94 U L^−1, the hepatocyte hydropic degeneration ([3]; EAC + compound 7, EAC group approximately 45%) was “around 15%” and the portal inflammation grade ([3]; EAC + compound 7, EAC group grade 3) was 2. For the same compound, the liver pathology score ([3]; EAC + compound 7, EAC group score 7, untreated 0) was 3, the lobular inflammation grade ([3]; compound 7 only, no EAC) was 1 and the portal inflammation grade ([3]; compound 7 only, no EAC) was 2. The liver pathology score ([3]; compound 7 only, no EAC, untreated 0) was 4, the “Bax expression relative to untreated control” value (Bax) was 5.22 fold and the “reduction of α-tubulin protein expression vs untreated control” value (α-tubulin) was 2.7 fold. The “p53 expression relative to untreated control” value (p53) was 3.03 fold.

Reference: PMC12461739, “Multi-targeted azacoumarin–cyanocinnamate hybrids induce G2/M arrest and apoptosis via tubulin, and COX-2/VEGFR modulation: insights from in vitro mechanistic basis and in vivo validation” (RSC Medicinal Chemistry, 2025)
